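Grown in 96-well plates, cells were treated for 48 hours with each compound at five concentrations. Insufficient inhibition: endpoint recorded as highest concentration tested. GI50: concentration for 50% inhibition of growth.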 Active and inactive are the calls of the source. No stated cut-off is given here; in the data, active = GI50 up to about 1.1 µM and inactive = higher.
Key:
Test in all cases: NCI-60 cell line screen, 48 h
786-0 = tested on: 786-0
A498 = tested on: A498
A549 = tested on: A549
ACHN = tested on: ACHN
BT-549 = tested on: BT-549
CAKI-1 = tested on: CAKI-1
CCRF-CEM = tested on: CCRF-CEM
COLO 205 = tested on: COLO 205
DU-145 = tested on: DU-145
EKVX = tested on: EKVX
HCC 2998 = tested on: HCC 2998
HCT-116 = tested on: HCT-116
HCT-15 = tested on: HCT-15
HOP-62 = tested on: HOP-62
HT-29 = tested on: HT-29
IGROV-1 = tested on: IGROV-1
K562 = tested on: K562
KM12 = tested on: KM12
LOX IMVI = tested on: LOX IMVI
M14 = tested on: M14
MCF7 = tested on: MCF7
MDA-MB-231 = tested on: MDA-MB-231
MDA-MB-435 = tested on: MDA-MB-435
MDA-N = tested on: MDA-N
MOLT-4 = tested on: MOLT-4
Malme-3M = tested on: Malme-3M
NCI-H226 = tested on: NCI-H226
NCI-H23 = tested on: NCI-H23
NCI-H460 = tested on: NCI-H460
NCI-H522 = tested on: NCI-H522
NCI/ADR-RES = tested on: NCI/ADR-RES
OVCAR-4 = tested on: OVCAR-4
OVCAR-5 = tested on: OVCAR-5
OVCAR-8 = tested on: OVCAR-8
PC-3 = tested on: PC-3
RPMI-8226 = tested on: RPMI-8226
RXF 393 = tested on: RXF 393
SF-268 = tested on: SF-268
SF-295 = tested on: SF-295
SF-539 = tested on: SF-539
SK-MEL-28 = tested on: SK-MEL-28
SK-MEL-2 = tested on: SK-MEL-2
SK-MEL-5 = tested on: SK-MEL-5
SK-OV-3 = tested on: SK-OV-3
SN12C = tested on: SN12C
SNB-19 = tested on: SNB-19
SNB-75 = tested on: SNB-75
SR = tested on: SR
SW-620 = tested on: SW-620
T47D = tested on: T47D
TK-10 = tested on: TK-10
U-251 = tested on: U-251
UACC-257 = tested on: UACC-257
UACC-62 = tested on: UACC-62
UO-31 = tested on: UO-31
HL-60 = tested on: HL-60
HOP-92 = tested on: HOP-92
OVCAR-3 = tested on: OVCAR-3

SMILES: CC(=O)O[C@@H]1C2=C(C)C=C(O2)[C@H]2O[C@]2(C)C[C@H]2C=C(C(=O)O2)[C@H](OC(C)=O)CC1[C@@]1(C)CO1 (some centres not stated)
- GI50 (786-0): 23.9 µM (inactive)
- GI50 (A498): > 100 µM (inactive)
- GI50 (A549): 45.3 µM (inactive)
- GI50 (ACHN): 23.7 µM (inactive)
- GI50 (BT-549): 21.1 µM (inactive)
- GI50 (CAKI-1): 24.2 µM (inactive)
- GI50 (CCRF-CEM): 8.59 µM (inactive)
- GI50 (COLO 205): 14.1 µM (inactive)
- GI50 (DU-145): 31.3 µM (inactive)
- GI50 (EKVX): 26.2 µM (inactive)
- GI50 (HCC 2998): > 100 µM (inactive)
- GI50 (HCT-116): 15.1 µM (inactive)
- GI50 (HCT-15): 22 µM
- GI50 (HOP-62): 23 µM (inactive)
- GI50 (HT-29): 25.4 µM (inactive)
- GI50 (IGROV-1): 14.3 µM (inactive)
- GI50 (K562): 17 µM (inactive)
- GI50 (KM12): 36.6 µM (inactive)
- GI50 (LOX IMVI): 18.4 µM (inactive)
- GI50 (M14): 23.8 µM (inactive)
- GI50 (MCF7): 18 µM (inactive)
- GI50 (MDA-MB-231): 27.4 µM (inactive)
- GI50 (MDA-MB-435): 23.5 µM (inactive)
- GI50 (MDA-N): 30.3 µM (inactive)
- GI50 (MOLT-4): 9.64 µM (inactive)
- GI50 (Malme-3M): 17.5 µM (inactive)
- GI50 (NCI-H226): > 100 µM (inactive)
- GI50 (NCI-H23): 28.9 µM (inactive)
- GI50 (NCI-H460): 37 µM (inactive)
- GI50 (NCI-H522): 3.23 µM (inactive)
- GI50 (NCI/ADR-RES): 29.4 µM (inactive)
- GI50 (OVCAR-4): 27.7 µM (inactive)
- GI50 (OVCAR-5): 26.4 µM (inactive)
- GI50 (OVCAR-8): 35.4 µM (inactive)
- GI50 (PC-3): 32.4 µM (inactive)
- GI50 (RPMI-8226): 13.9 µM (inactive)
- GI50 (RXF 393): 17.2 µM (inactive)
- GI50 (SF-268): 42 µM (inactive)
- GI50 (SF-295): 36.1 µM (inactive)
- GI50 (SF-539): 29.5 µM (inactive)
- GI50 (SK-MEL-28): 19.4 µM (inactive)
- GI50 (SK-MEL-2): 56.1 µM (inactive)
- GI50 (SK-MEL-5): 35.7 µM (inactive)
- GI50 (SK-OV-3): > 100 µM (inactive)
- GI50 (SN12C): 21.3 µM (inactive)
- GI50 (SNB-19): > 100 µM (inactive)
- GI50 (SNB-75): 42.5 µM (inactive)
- GI50 (SR): 18.7 µM (inactive)
- GI50 (SW-620): 12.8 µM (inactive)
- GI50 (T47D): 18.8 µM (inactive)
- GI50 (TK-10): 60.3 µM (inactive)
- GI50 (U-251): 19.1 µM (inactive)
- GI50 (UACC-257): 28.1 µM (inactive)
- GI50 (UACC-62): 21.7 µM (inactive)
- GI50 (UO-31): 20.1 µM (inactive)

SMILES: CCSC1=CC2(O)N(CCc3ccc(OC)c(OC)c3)C(=O)CC2(C(=O)OC)CC1=O (configuration not stated)
- GI50 (786-0): 19.3 µM (inactive)
- GI50 (A498): > 100 µM (inactive)
- GI50 (A549): > 100 µM (inactive)
- GI50 (ACHN): 29.9 µM (inactive)
- GI50 (BT-549): 18.4 µM (inactive)
- GI50 (CAKI-1): 70.5 µM (inactive)
- GI50 (CCRF-CEM): 34 µM (inactive)
- GI50 (COLO 205): 77.6 µM (inactive)
- GI50 (DU-145): 18.2 µM (inactive)
- GI50 (EKVX): 40.1 µM (inactive)
- GI50 (HCC 2998): 18.5 µM (inactive)
- GI50 (HCT-116): 17.9 µM (inactive)
- GI50 (HCT-15): 25.8 µM
- GI50 (HL-60): 32.7 µM (inactive)
- GI50 (HOP-62): 18.2 µM (inactive)
- GI50 (HOP-92): 14.6 µM (inactive)
- GI50 (HT-29): 18.6 µM (inactive)
- GI50 (IGROV-1): 18.2 µM (inactive)
- GI50 (K562): 37.9 µM (inactive)
- GI50 (KM12): 18.5 µM (inactive)
- GI50 (LOX IMVI): 19.1 µM (inactive)
- GI50 (M14): 25.8 µM (inactive)
- GI50 (MCF7): 19.7 µM (inactive)
- GI50 (MDA-MB-231): 18.3 µM (inactive)
- GI50 (MDA-MB-435): 21.2 µM (inactive)
- GI50 (MDA-N): 31.3 µM (inactive)
- GI50 (MOLT-4): 23.8 µM (inactive)
- GI50 (NCI-H226): > 100 µM (inactive)
- GI50 (NCI-H23): 18.4 µM (inactive)
- GI50 (NCI/ADR-RES): 65.9 µM (inactive)
- GI50 (OVCAR-3): 18.2 µM (inactive)
- GI50 (OVCAR-4): 35.8 µM (inactive)
- GI50 (OVCAR-5): > 100 µM (inactive)
- GI50 (OVCAR-8): 16.6 µM (inactive)
- GI50 (PC-3): 18.7 µM (inactive)
- GI50 (RPMI-8226): 29.4 µM (inactive)
- GI50 (SF-295): > 100 µM (inactive)
- GI50 (SF-539): 26.3 µM (inactive)
- GI50 (SK-MEL-28): 37.2 µM (inactive)
- GI50 (SK-MEL-2): 21.1 µM (inactive)
- GI50 (SK-MEL-5): 41.2 µM (inactive)
- GI50 (SK-OV-3): 86.9 µM (inactive)
- GI50 (SN12C): 19.6 µM (inactive)
- GI50 (SNB-19): 92.9 µM (inactive)
- GI50 (SR): 19.6 µM (inactive)
- GI50 (SW-620): 25.2 µM (inactive)
- GI50 (T47D): 21 µM (inactive)
- GI50 (TK-10): 19.5 µM (inactive)
- GI50 (U-251): 23.4 µM (inactive)
- GI50 (UACC-257): 17.9 µM (inactive)
- GI50 (UACC-62): 19.5 µM (inactive)
- GI50 (UO-31): 18.5 µM (inactive)

SMILES: COc1ccc(/C(Cl)=C(\C#N)c2ccc(OC)c(OC)c2)cc1OC
- GI50 (786-0): > 100 µM (inactive)
- GI50 (A498): > 100 µM (inactive)
- GI50 (A549): > 100 µM (inactive)
- GI50 (ACHN): 93.8 µM (inactive)
- GI50 (BT-549): 57.7 µM (inactive)
- GI50 (CAKI-1): 54.2 µM (inactive)
- GI50 (CCRF-CEM): > 10 µM (inactive)
- GI50 (COLO 205): 44.5 µM (inactive)
- GI50 (DU-145): > 100 µM (inactive)
- GI50 (EKVX): 21.3 µM (inactive)
- GI50 (HCC 2998): > 100 µM (inactive)
- GI50 (HCT-116): 60.1 µM (inactive)
- GI50 (HCT-15): 44.3 µM
- GI50 (HL-60): 15.3 µM (inactive)
- GI50 (HOP-62): 43.7 µM (inactive)
- GI50 (HOP-92): 17.8 µM (inactive)
- GI50 (HT-29): 38.6 µM (inactive)
- GI50 (IGROV-1): > 100 µM (inactive)
- GI50 (K562): 48.9 µM (inactive)
- GI50 (LOX IMVI): > 100 µM (inactive)
- GI50 (M14): > 100 µM (inactive)
- GI50 (MCF7): 59 µM (inactive)
- GI50 (MDA-MB-231): 35.6 µM (inactive)
- GI50 (MDA-MB-435): 87.7 µM (inactive)
- GI50 (MDA-N): > 100 µM (inactive)
- GI50 (MOLT-4): 78.9 µM (inactive)
- GI50 (NCI-H226): 77.4 µM (inactive)
- GI50 (NCI-H23): 80.2 µM (inactive)
- GI50 (NCI-H460): 36.8 µM (inactive)
- GI50 (NCI-H522): 59.8 µM (inactive)
- GI50 (OVCAR-3): 63.1 µM (inactive)
- GI50 (OVCAR-4): 81.5 µM (inactive)
- GI50 (OVCAR-5): > 100 µM (inactive)
- GI50 (PC-3): 79.1 µM (inactive)
- GI50 (RPMI-8226): 15 µM (inactive)
- GI50 (RXF 393): 38.6 µM (inactive)
- GI50 (SF-295): 61.5 µM (inactive)
- GI50 (SF-539): > 100 µM (inactive)
- GI50 (SK-MEL-2): 96.2 µM (inactive)
- GI50 (SK-MEL-5): 46.8 µM (inactive)
- GI50 (SN12C): > 100 µM (inactive)
- GI50 (SNB-19): > 100 µM (inactive)
- GI50 (SR): 40.2 µM (inactive)
- GI50 (SW-620): > 100 µM (inactive)
- GI50 (T47D): 34.4 µM (inactive)
- GI50 (TK-10): > 100 µM (inactive)
- GI50 (U-251): 40.1 µM (inactive)
- GI50 (UACC-257): > 100 µM (inactive)
- GI50 (UACC-62): 42.3 µM (inactive)
- GI50 (UO-31): 59 µM (inactive)

From ChEMBL document CHEMBL1201862, “PubChem BioAssay data set” (2004)
